Results reported in patent US9688743B2, “Optical biosensors” (Carnegie Mellon University, priority 2007, dated 2017).

Key:
JAR200 cells = assay: Effect of fluorogens on yeast cell growth; assay type: cell-based; settings: 500 nM fluorogen, 30° C.
Description: FIG. 17 is a graph depicting the effect of fluorogens on yeast cell growth. JAR200 cells are inoculated at ˜10^6 cells/ml into 35 ml SD+CAA medium in 125 ml baffled flasks and allowed to grow at 30° C. at 300 RPM for 2 hours prior to addition of fluorogens at the indicated concentrations. One ml samples are removed at indicated time points, and growth halted by addition of 75 μl of 300 mM NaN3 prior to reading absorbance. Doubling time of about 1.9 hrs is unchanged by most fluorogen treatments. For 500 nM MG-ester, the doubling time is about 2.8 hrs; and for 500 nM MG, the doubling time is over 24 hrs.

living NIH3T3 cells = assay: Entry of fluorogen controls into living cells; assay type: cell-based, mouse
[1] = comparison value; cited from earlier work

Row | Compound | doubling time (JAR200 cells) | further results
1 | CN(C)c1ccc(C(=C2C=CC(=[N+](C)C)C=C2)c2ccccc2)cc1 [MG, malachite green, reference compound] | over 24 hrs | 
2 | 2-[(1-(18-amino-4,9-diaza-12,15-dioxa-5,8-dioxo-octadecanyl)-4(111)-quinolinylidene)methyl-3-(3-sulfopropyl)benzothiazolinium]trifluoroacetate [TO1-2p] |  | entry into living cells (living NIH3T3 cells): did not enter living NIH3T3 cells
3 | O=C(O)c1ccccc1-c1c2ccc(=O)c([As]3SCCS3)c-2oc2c([As]3SCCS3)c(O)ccc12 [F1AsH-EDT2] |  | fluorescence increase on binding cognate tetracysteine peptide [1]: 50,000 fold
4 | CCOC(=O)CCCc1ccc([C+](c2ccc(N(C)C)cc2)c2ccc(N(C)C)cc2)cc1.[Cl-] [MG-ester, Methylium, bis[4-(dimethylamino)phenyl](4-(3-carboethoxypropyl)phenyl)-chloride] | about 2.8 hrs | 
